Measured values from ChEMBL document CHEMBL1201862, “PubChem BioAssay data set” (2004).
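Results reflect a 48-hour exposure of cells in 96-well plates to compound at five concentrations. GI50 marks 50% less growth.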 Active and inactive are the calls of the source. Cut-off read from the data, not from the text of the source: active = GI50 up to about 1.1 µM and inactive = higher.

Columns and labels:
Experiment in all cases: NCI anticancer screen, dose series, 48 h
[1] = tested on: UACC-62
[2] = tested on: COLO 205
[3] = tested on: HT-29
[4] = tested on: HL-60
[5] = tested on: SF-268
[6] = tested on: SK-MEL-5
[7] = tested on: M14
[8] = tested on: MCF7
[9] = tested on: MDA-MB-435
[10] = tested on: 786-0
[11] = tested on: SK-MEL-2
[12] = tested on: TK-10
[13] = tested on: CCRF-CEM
[14] = tested on: UO-31
[15] = tested on: IGROV-1
[16] = tested on: A498
[17] = tested on: SNB-19
[18] = tested on: NCI-H522
[19] = tested on: OVCAR-4
[20] = tested on: RPMI-8226

Row | SMILES | GI50 [1] | GI50 [2] | GI50 [3] | GI50 [4] | GI50 [5] | GI50 [6] | GI50 [7] | GI50 [8] | GI50 [9] | GI50 [10] | GI50 [11] | GI50 [12] | GI50 [13] | GI50 [14] | GI50 [15] | GI50 [16] | GI50 [17] | GI50 [18] | GI50 [19] | GI50 [20]
1 | CCC(=O)OC1CCn2c1nc1c2C(=O)C(C)=C(N2CC2)C1=O (stereo unspecified) | 0.0607 µM (active) | 0.199 µM (active) | 0.183 µM (active) | 0.35 µM (active) | 0.0755 µM (active) | 0.0294 µM (active) | 0.0698 µM (active) | 0.00637 µM (active) | 0.0254 µM (active) | 0.0841 µM (active) | 0.064 µM (active) | 0.0383 µM (active) | 0.59 µM (active) | 0.0698 µM (active) | 0.482 µM (active) | 0.0526 µM (active) | 0.0989 µM (active) | 0.0361 µM (active) | 0.126 µM (active) | –
2 | C=CCn1c(-c2cc(C(C)(C)C)c(O)c(C(C)(C)C)c2)cs/c1=N\C(P(=O)(O)O)P(=O)(O)O | – | > 100 µM (inactive) | > 100 µM (inactive) | 19.9 µM (inactive) | > 100 µM (inactive) | – | > 100 µM (inactive) | > 100 µM (inactive) | > 100 µM (inactive) | 36.8 µM (inactive) | > 100 µM (inactive) | > 100 µM (inactive) | – | > 100 µM (inactive) | > 100 µM (inactive) | > 100 µM (inactive) | > 100 µM (inactive) | – | > 100 µM (inactive) | > 100 µM (inactive)
3 | O=c1[nH]c(=O)n(C2OC(CO)C(O)C2O)c2nc(-c3ccc(-c4ccccc4)cc3)cnc12 (stereo unspecified) | > 100 µM (inactive) | > 100 µM (inactive) | > 100 µM (inactive) | – | > 100 µM (inactive) | 40.6 µM (inactive) | 81.8 µM (inactive) | > 100 µM (inactive) | > 100 µM (inactive) | > 100 µM (inactive) | > 100 µM (inactive) | > 100 µM (inactive) | > 100 µM (inactive) | > 100 µM (inactive) | > 100 µM (inactive) | > 100 µM (inactive) | > 100 µM (inactive) | > 100 µM (inactive) | > 100 µM (inactive) | > 100 µM (inactive)
4 | CCSC1=N/C(=C\c2ccco2)C(=O)N1 | > 100 µM (inactive) | > 100 µM (inactive) | > 100 µM (inactive) | – | > 100 µM (inactive) | > 100 µM (inactive) | > 100 µM (inactive) | 6.59 µM (inactive) | > 100 µM (inactive) | > 100 µM (inactive) | > 100 µM (inactive) | > 100 µM (inactive) | > 100 µM (inactive) | > 100 µM (inactive) | 74.8 µM (inactive) | > 100 µM (inactive) | 70.8 µM (inactive) | > 100 µM (inactive) | – | > 100 µM (inactive)
5 | CC(=O)OC1C2CCC3CC2C2(SCCS2)C31 (stereo unspecified) | > 100 µM (inactive) | > 100 µM (inactive) | > 100 µM (inactive) | 70.8 µM (inactive) | > 100 µM (inactive) | > 100 µM (inactive) | > 100 µM (inactive) | > 100 µM (inactive) | > 100 µM (inactive) | > 100 µM (inactive) | > 100 µM (inactive) | > 100 µM (inactive) | – | > 100 µM (inactive) | > 100 µM (inactive) | > 100 µM (inactive) | > 100 µM (inactive) | > 100 µM (inactive) | > 100 µM (inactive) | > 100 µM (inactive)
6 | CC(=O)CC(=O)N1CCOC1=O | > 10 µM (inactive) | > 10 µM (inactive) | > 10 µM (inactive) | > 10 µM (inactive) | > 10 µM (inactive) | > 10 µM (inactive) | > 10 µM (inactive) | > 10 µM (inactive) | > 10 µM (inactive) | > 10 µM (inactive) | > 10 µM (inactive) | > 10 µM (inactive) | > 10 µM (inactive) | > 10 µM (inactive) | > 10 µM (inactive) | > 10 µM (inactive) | > 10 µM (inactive) | – | > 10 µM (inactive) | > 10 µM (inactive)
7 | CCOC(=O)c1cc2c3c(c(C(C)=O)c(OC)c2[nH]1)N(C(=O)CC)CC3 | 16.3 µM (inactive) | 18.2 µM (inactive) | 16.6 µM (inactive) | 6.4 µM (inactive) | 16.4 µM (inactive) | 10.9 µM (inactive) | 16.8 µM (inactive) | 14.5 µM (inactive) | 15.6 µM (inactive) | 17.5 µM (inactive) | 22.3 µM (inactive) | – | 13.7 µM (inactive) | 12.7 µM (inactive) | 13.6 µM (inactive) | 36.9 µM (inactive) | 12.8 µM (inactive) | – | 21.5 µM (inactive) | 5.13 µM (inactive)
8 | CC(=O)c1nc(C#N)c(N)o1 | > 100 µM (inactive) | > 100 µM (inactive) | > 100 µM (inactive) | – | > 100 µM (inactive) | – | > 100 µM (inactive) | > 100 µM (inactive) | > 100 µM (inactive) | > 100 µM (inactive) | > 100 µM (inactive) | > 100 µM (inactive) | > 100 µM (inactive) | > 100 µM (inactive) | > 100 µM (inactive) | > 100 µM (inactive) | > 100 µM (inactive) | > 100 µM (inactive) | > 100 µM (inactive) | > 100 µM (inactive)
